Three molecules from publication PMC9119314 (Frontiers in Pharmacology, 2022) can be followed below.

The subject of assay [1] is A2780/WT cells. Put plainly: Chemosensitivity MTT assay, A2780 wild type. In kind it is cell-based, human. As to conditions: Homo sapiens, A2780, 96 h, ± SE, read-out: Activity against A2780/WT cells, IC50. As to the method: (§1) The chemosensitivity of compounds 3–6 was assessed in the wild-type immortalized human ovarian adenocarcinoma cell line A2780 and its daughter cell lines, which are resistant to the standard cancer chemotherapeutics doxorubicin (A2780/ADR) and cisplatin (A2780/CIS, all cell lines from ECACC, Salisbury, United Kingdom). A modified MTT assay was used ([Shnyder et al., 2008]). Cells (2 × 10^4/ml) were inoculated into each well of a 96-well plate and incubated for 24 h at 37°C in a humidified atmosphere containing 5% CO2. Compounds were then added at a range of concentrations to each well, and the plates were then incubated for a further 96 h. After 96 h, the culture medium was removed and 200 μL of 0.5 mg ml^–1 MTT solution (Sigma) in the complete medium was added to each well. Following a further 4 h incubation, the solution was removed from each well and 150 μL of DMSO was added to solubilize the formazan crystals resulting from MTT conversion. The absorbance values for the resulting solutions were read at 540 nm on an Azure 96-well microplate reader (Azure Biosynstems Inc.), and the cell survival was calculated as the absorbance of treated cells divided by the control.
(In general: Formazan colour is commonly taken as a measure of viable cells.)

For assay [2], the system named is A2780/cis cells. Put plainly: Chemosensitivity MTT assay, cisplatin-resistant A2780/CIS. In kind it is cell-based, human. As to conditions: Homo sapiens, A2780cis, 96 h, ± SE, read-out: Activity against A2780/cis cells, IC50. As to the method: as §1
Assay [3] concerns P. falciparum K1. Put plainly: In vitro antiplasmodial activity, P. falciparum K1 (lactate dehydrogenase assay). It is filed as cell-based, Plasmodium falciparum. To be noted: for IC50: Plasmodium falciparum, chloroquine-resistant strain K1, 48 h, mean ± SE, read-out: Activity against P. falciparum K1, IC50. As to the method:
P. falciparum (K1 clone) was maintained in human erythrocytes prepared from the donated blood samples (blood groups unknown, Ethical Tissue, University of Bradford), suspended in the RPMI 1640 medium as previously described ([Wright et al., 2001]), except that serum was replaced with Albumax II, [5% (^w/v)]. […] Twofold serial dilutions were made in 96-well microtiter plates in duplicate, and infected erythrocytes were added to give a final volume of 100 µL with 2.5% hematocrit and 1% parasitemia. Chloroquine diphosphate was used as a positive control, and uninfected and infected erythrocytes without compounds were included in each test. The plates were placed into a modular incubator; gassed with 93% nitrogen, 3% oxygen, and 4% carbon dioxide; and incubated at 37°C for 48 h. The parasite growth was assessed by measuring lactate dehydrogenase activity as described by [Makler et al. (1993)]. The reagent used contained the following in each mL: acetylpyridine adenine dinucleotide (APAD), 0.74 mg; lithium lactate, 19.2 mg; diaphorase, 0.1 mg; Triton X-100, 2 μL; nitroblue tetrazolium, 1 mg; and phenazine ethosulphate, 0.5 mg. Fifty microliter of this reagent was added to each well and mixed; plates were incubated for 15 min at 37°C. The optical densities were read at 550 nm using an Azure 96-well microplate reader (Azure Biosystems Inc.), and % inhibition of growth was calculated by comparison with the control values. IC50 values were determined using linear regression analysis (Microsoft Excel). A minimum of three separate determinations was carried out for each compound.

The test system of assay [4] is P. falciparum 3D7. Briefly: In vitro antiplasmodial activity, P. falciparum 3D7 (SYBR Green I). In kind it is cell-based. As to conditions: Plasmodium falciparum; chloroquine-sensitive strain 3D7, 48 h; read-out: Activity against P. falciparum 3D7, IC50. As to the method: (§2) P. falciparum (3D7 clone) and P. knowlesi (A1-H.1 clone) were maintained in culture in RPMI 1640 supplemented with 25 mM HEPES, 25 mM NaHCO3, 10 mM D-glucose, 2 mM L-glutamine, 50 mg/L hypoxanthine, 25 mg/L gentamicin sulfate, 5 g/L Albumax II, and 10% (v/v) equine serum (Thermo Fisher Scientific, 26-050-088). The P. falciparum (3D7) and P. knowlesi (A1-H.1) parasites were grown in human A^+ red blood cells (National Health Blood and Transplant, United Kingdom). The parasites were incubated in sealed flasks at 37°C under a culture gas mixture of 96% N2, 3% CO2, and 1% O2. ([van Schalkwyk et al., 2019]). The compounds were initially dissolved in DMSO prior to diluting in RPMI. All experiments were initiated using unsynchronized parasites with both the parasitemia and hematocrit set to 1%. Drug susceptibility assays were set up in 96-well, flat-bottom microplates in a final volume of 200 μL, as described previously ([van Schalkwyk et al., 2017]). The controls were included for the background fluorescence (0% viability; parasites exposed to a supralethal 10 μM chloroquine concentration) and 100% growth (parasites in drug-free wells). The plates were incubated for one complete life cycle (27 h for P. knowlesi or 48 h for P. falciparum in vitro) at 37°C in a modular incubation chamber (Billups-Rothenburg Inc.) under the culture gas. Upon termination of the assay, the plates were stored at −20°C overnight. The SYBR Green I fluorescent method was used to measure parasite survival ([Bennett et al., 2004]; [Smilkstein et al., 2004]). After the microplates were thawed, 100 μL from each well was transferred into a duplicate plate. To this was added 100 μL of SYBR green solution [SYBR Green I (Thermo Fisher Scientific, S7563), diluted 1:5000 in a lysis buffer made of 20 mM Tris, 5 mM EDTA, 0.008% (w/v) saponin, 0.08% (v/v) Triton X-100, pH 7.5]. The plates were stored in the dark for 1 h before fluorescence was read at a 490 nm excitation wavelength and a 520 nm emission wavelength on a Spectramax M3 microplate reader (Molecular Devices) ([van Schalkwyk et al., 2017]). The background fluorescence (wells with parasites at 0% viability) was subtracted from all drug assay wells, and the parasite proliferation was determined as a percentage of the fluorescence in the drug-free control wells.

For assay [5], the system named is Hep G2-A16-CD81 cells. Briefly: Hep G2 cellular toxicity counter-screen (CellTiterGlo). As to conditions: HepG2-A16-CD81, no sporozoites, ± SE, read-out: Activity against Hep G cells. It is filed as cell-based. As for the experimental part: Briefly, 3000 Hep G2-A16-CD81 cells/well were seeded in 1536-well plates (Greiner Bio). 50 nL of the test and control compound diluted in DMSO was added and incubated for 24 h. […] The plates were centrifuged for 5 min at 330 × g and incubated at 37°C. Forty-eight hours post infection, 2 μL of luciferin reagent (Promega BrightGlo) was added to each well, and the luciferase activity was detected using a Perkin Elmer Envision plate reader. […] To counter-screen for cellular toxicity, Hep G2-A16-CD81 cells were seeded as above for the sporozoite liver-stage assay but in the absence of sporozoites. Toxicity measurements were performed by adding Promega CellTiterGlo® (2 μL), followed by luminescence measurements. Curve fitting was done as described above using puromycin (25 μM) as a positive control and DMSO as negative control wells.
Background: Counterscreens check selectivity or assay interference.

The test system of assay [6] is P. knowlesi A1-H.1. Put plainly: In vitro antiplasmodial activity, P. knowlesi A1-H.1 (SYBR Green I). As to conditions: 27 h. In kind it is cell-based, Plasmodium knowlesi. As for the experimental part:
as §2

Setting [7] is: Plasmodium knowlesi, read-out: Activity against P. knowlesi A1-H.1, IC50, 27 h, ± SD.

Molecules are shown by their SMILES. Like-named read-outs stand apart in the source and are kept apart here.

For `C[n+]1c2ccccc2cc2[n-]c3c(Br)cc(Br)cc3c21` [Compound 4, 7,9-Dibromocryptolepine], the IC50 turned out to be 200 ± 580 nM in assay [1]; 580 ± 100 nM in assay [2]; 440 ± 90 nM in assay [3]; 760 ± 60 nM in assay [4]; 6.79 ± 0.92 µM in assay [5]; 1120 ± 450 nM in assay [6] (setting [7]). In addition, in assay [3], the “Selectivity index (SI), P. falciparum K1 with respect to Hep G cells” value (from here on “Selectivity index (SI), P. falciparum K1”) amounted to 15.4.

In the case of `C[n+]1c2ccccc2cc2[n-]c3ccc(I)cc3c21` [Compound 5, 7-iodocryptolepine], the IC50 in assay [1] was 60 ± 10 nM; in assay [2], 310 ± 190 nM; in assay [3] it was 160 ± 30 nM; in assay [4], 92 ± 20 nM; in assay [5], 6.7 ± 0.5 µM; in assay [6] (setting [7]) it was 110 nM. The IC50 in assay [6] (read-out: Activity against P. knowlesi A1-H.1, IC50, ± SD) stood at 104 ± 40 nM. For the same molecule, in assay [3], the “Selectivity index (SI), P. falciparum K1” value is 41.9.

On to `C[n+]1c2ccccc2cc2[n-]c3c(I)cc(I)cc3c21` [Compound 6, 7,9-diiodocryptolepine], for which the IC50 in assay [1] was 130 ± 70 nM; in assay [2], 280 ± 50 nM; in assay [3], 250 ± 40 nM; in assay [4], 660 ± 60 nM; in assay [5], 28.2 ± 4.1 µM; in assay [6] (setting [7]) it was 1040 ± 220 nM. Further, in assay [3], the “Selectivity index (SI), P. falciparum K1” value was 113.
